Measurements as given in ChEMBL document CHEMBL6178010, “XPO1-Targeting Selective Inhibitors of Transcriptional Activation Suppress Graft-versus-Host Disease” (J Med Chem, 2025).

Experiments:
Exportin-1 = Exportin-1 (Homo sapiens, UniProt O14980); assay: Inhibition of XPO1 in PMA/ionomycin-activated human Jurkat cells expressing IL-2 promoter reporter gene assessed as suppression of IL-2 transcriptional activity incubated for 6 hrs by Bright-Glo Luciferase assay; format: cell-based
Jurkat = assay: Cytotoxicity against human Jurkat cells assessed as suppression of cell viability incubated for 24 hrs by CellTiter-Glo assay; format: functional, cell-based
XPO1 = assay: Selectivity ratio of EC50 for cytotoxicity against human Jurkat cells assessed as suppression of cell viability to EC50 for inhibition of XPO1 in PMA/ionomycin-activated human Jurkat cells expressing IL-2 promoter reporter gene assessed as suppression of IL-2 transcriptional activity; format: toxicity, cell-based; details: read-out: Ratio EC50
[1] = Metabolic stability in mouse liver microsome assessed as half life; format: ADME; details: liver microsomes
[2] = Metabolic stability in mouse liver microsome assessed as intrinsic clearance; format: ADME; details: liver microsomes, read-out: CLH

Sequence of Exportin-1 (O14980 whole entry): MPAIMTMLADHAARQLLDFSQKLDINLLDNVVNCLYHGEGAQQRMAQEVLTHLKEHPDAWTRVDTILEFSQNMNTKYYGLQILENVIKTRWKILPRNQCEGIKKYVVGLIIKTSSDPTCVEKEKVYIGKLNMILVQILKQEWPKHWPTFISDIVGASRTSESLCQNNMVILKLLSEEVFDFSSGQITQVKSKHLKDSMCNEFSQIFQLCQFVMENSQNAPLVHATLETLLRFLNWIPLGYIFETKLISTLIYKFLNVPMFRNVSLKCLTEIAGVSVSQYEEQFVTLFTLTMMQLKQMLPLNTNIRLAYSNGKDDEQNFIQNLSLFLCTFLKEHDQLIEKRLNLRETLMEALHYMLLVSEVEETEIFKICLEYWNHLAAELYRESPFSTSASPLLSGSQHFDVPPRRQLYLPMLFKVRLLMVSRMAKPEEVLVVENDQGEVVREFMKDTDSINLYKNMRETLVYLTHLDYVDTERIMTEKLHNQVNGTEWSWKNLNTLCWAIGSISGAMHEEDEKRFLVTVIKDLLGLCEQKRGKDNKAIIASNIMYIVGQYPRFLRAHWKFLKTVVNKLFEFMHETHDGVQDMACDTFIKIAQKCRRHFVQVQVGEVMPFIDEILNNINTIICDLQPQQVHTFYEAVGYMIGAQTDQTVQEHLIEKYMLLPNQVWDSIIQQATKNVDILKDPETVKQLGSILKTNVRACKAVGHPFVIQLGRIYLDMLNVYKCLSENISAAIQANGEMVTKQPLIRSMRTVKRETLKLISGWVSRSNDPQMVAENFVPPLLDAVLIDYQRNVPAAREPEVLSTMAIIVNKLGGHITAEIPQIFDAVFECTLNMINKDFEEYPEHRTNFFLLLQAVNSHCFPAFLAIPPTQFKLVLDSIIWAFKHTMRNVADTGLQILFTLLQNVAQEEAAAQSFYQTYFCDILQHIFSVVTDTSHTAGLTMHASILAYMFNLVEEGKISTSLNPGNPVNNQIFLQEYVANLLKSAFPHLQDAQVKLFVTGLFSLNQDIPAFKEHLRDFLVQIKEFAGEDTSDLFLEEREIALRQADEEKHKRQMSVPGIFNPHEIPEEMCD

Row | Compound | EC50 (Exportin-1) [nM] | EC50 (Jurkat) [nM] | selectivity ratio (XPO1) | half-life [1] [min] | microsomal CLint [2] [µL/min/mg]
1 | CC1=CC(=O)N(Nc2ccc(C(F)(F)F)c(C3CCCC3)n2)C1=O | 12 | 34 | 2.8 | < 10 | > 139
2 | CC1=CC(=O)N(Nc2ncc(C(F)(F)F)c(Cl)n2)C1=O | 156 | 338 | 2.2 | 19.9 | 70
3 | CC1=CC(=O)N(Nc2nc(C3CC3)nn3cccc23)C1=O | 107 | 347 | 3.2 | – | –
4 | CC1=CC(=O)N(Nc2cc(C(F)(F)F)cc(N3CCCC3)n2)C1=O | 4.7 | 26 | 5.5 | – | –
5 | CC1=CC(=O)N(Nc2nc(N3CCCC(F)(F)C3)nn3cccc23)C1=O | 222 | 832 | 3.7 | – | –
6 | CC1=CC(=O)N(Nc2ccc(C(F)(F)F)c(N3CC4CC(C4)C3)n2)C1=O | 7.3 | 38.1 | 5.2 | – | –
7 | CC1=CC(=O)N(N(C)c2nc(N(C)CC3CC3)nn3cccc23)C1=O | 29.1 | 187 | 6.4 | 8.5 | 163
8 | CC1=CC(=O)N(N(C)c2nc(N3CC(F)(F)C3)nn3cccc23)C1=O | 250 | 2250 | 9 | – | –
9 | CC1=CC(=O)N(Nc2ccc3cn[nH]c3n2)C1=O | 1820 | 6310 | 3.5 | – | –
10 | CNc1nc(NN2C(=O)C=C(C)C2=O)ccc1C(F)(F)F | 37 | 661 | 17.9 | – | –
11 | CC1=CC(=O)N(Nc2ccc(C(F)(F)F)c(Cl)n2)C1=O | – | – | – | 26.1 | 53
12 | CC1=CC(=O)N(Nc2ccc(C(F)(F)F)c(N3CC(F)(F)C3)n2)C1=O | 23 | 138 | 6 | < 10 | > 139
13 | CC1=CC(=O)N(N(C)c2nc(N3CCCC(F)(F)C3)nn3cccc23)C1=O | 209 | 4290 | 20.5 | – | –
14 | O=C(Nc1cc(C(F)(F)F)cc(C(F)(F)F)c1)c1cnc(Cl)nc1C(F)(F)F | – | – | – | < 10 | > 139
15 | CC1=CC(=O)N(Nc2nc(N(C)C3CCCC3)nn3cccc23)C1=O | 80.2 | 423 | 5.3 | – | –
16 | CC1=CC(=O)N(Nc2nc(-c3ccno3)nn3cccc23)C1=O | 550 | 5620 | 10.2 | – | –
17 | CC1=CC(=O)N(Nc2ccc(C(F)(F)F)c(N3CCC3)n2)C1=O | 11 | 434 | 39.5 | < 10 | > 139
18 | CC1=CC(=O)N(Nc2nc(N3CC(F)(F)C3)nn3cccc23)C1=O | 58 | 447 | 7.7 | – | –
19 | CO[C@@H]1CCN(c2nc(NN3C(=O)C=C(C)C3=O)ccc2C(F)(F)F)C1 | 25 | 400 | 16 | – | –
20 | CC1=CC(=O)N(Nc2nc(Cl)nn3cccc23)C1=O | 76 | 813 | 10.7 | – | –
21 | CC1=CC(=O)N(Nc2ccc(F)c(N3CC(F)(F)C3)n2)C1=O | 40 | 232 | 5.8 | – | –
22 | COCC#Cc1cc(NN2C(=O)C=C(C)C2=O)cc(C(F)(F)F)c1 | 61 | 696 | 11.4 | – | –
23 | CC1=CC(=O)N(Nc2nc(-c3ccnn3C)nn3cccc23)C1=O | 251 | 1320 | 5.3 | – | –
24 | CC1=C(C)C(=O)N(Nc2nc(C(F)(F)F)nn3cccc23)C1=O | 963 | 920 | 0.96 | – | –

Row | Compound | EC50 (Exportin-1) [nM] | EC50 (Jurkat) [nM] | selectivity ratio (XPO1) | half-life [1] [min] | microsomal CLint [2] [µL/min/mg]
25 | CC1=CC(=O)N(N(C)c2ccc(C(F)(F)F)c(N3CCCCC3)n2)C1=O | 5.3 | 66 | 12.5 | – | –
26 | CC1=CC(=O)N(N(C)c2nc(N3CCCCC3)nn3cccc23)C1=O | 61.5 | 386 | 6.3 | – | –
27 | CC1=CC(=O)N(Nc2nc(Cl)c(C(F)(F)F)cc2F)C1=O | 9 | 30 | 3.3 | 11.4 | 121
28 | CC1=CC(=O)N(Nc2ccc(C(F)(F)F)c(-c3ccnn3C)n2)C1=O | 724 | 1740 | 2.4 | – | –
29 | CC1=CC(=O)N(Nc2ccc(C(F)(F)F)c(Cl)c2)C1=O | 1.5 | 8.6 | 5.7 | – | –
30 | COc1cccc2nc(-c3cccs3)nc(NN3C(=O)C=C(C)C3=O)c12 [AS-602868] | 5.9 | 30.2 | 5.1 | < 10 | > 139
31 | CC1=CC(=O)N(Nc2nc(N(C)CC3CC3)nn3cccc23)C1=O | 60.4 | 329 | 5.4 | 2.6 | 528
32 | CC1=CC(=O)N(Nc2ccc(C(F)(F)F)c(-n3ccnc3)n2)C1=O | 447 | 1900 | 4.2 | – | –
33 | CO[C@H]1CCN(c2nc(NN3C(=O)C=C(C)C3=O)ccc2C(F)(F)F)C1 | 20.4 | 492 | 24.1 | – | –
34 | CC1=CC(=O)N(N(C)c2ccc(C(F)(F)F)c(N3CCC(F)(F)CC3)n2)C1=O | 9.7 | 75 | 7.7 | – | –
35 | CC1=CC(=O)N(Nc2nc(C3CCCC3)nn3cccc23)C1=O | 170 | 955 | 5.6 | – | –
36 | CC1=CC(=O)N(N(C)c2ccc(C(F)(F)F)c(N3CCCCCC3)n2)C1=O | 2.5 | 35.9 | 14.4 | – | –
37 | CC1=CC(=O)N(Nc2ccc(C(F)(F)F)c(N3CCCC3=O)n2)C1=O | 1630 | 4790 | 2.9 | – | –
38 | CC1=CC(=O)N(N(C)c2nc(N(C)C3CCCC3)nn3cccc23)C1=O | 95.7 | 418 | 4.4 | – | –
39 | CC1=CC(=O)N(Nc2cc(N3CC(F)(F)C3)c(C(F)(F)F)cn2)C1=O | 60 | 770 | 12.8 | – | –
40 | CC1=CC(=O)N(Nc2cc(C(F)(F)F)c(C(F)(F)F)cn2)C1=O | 9.4 | 190 | 20.2 | – | –
41 | CC1=CC(=O)N(Nc2nc(N3CCCCC3)nn3cccc23)C1=O | 30.1 | 148 | 4.9 | – | –
42 | CC1=CC(=O)N(Nc2cc(C(F)(F)F)cc(C(F)(F)F)n2)C1=O | 18 | 91 | – | – | –
43 | CC1=CC(=O)N(Nc2ccc(C(F)(F)F)c(N3CC4(CCC4)C3)n2)C1=O | 13 | 82 | 6.3 | – | –
44 | CN(c1ccc(C(F)(F)F)c(N2CC(F)(F)C2)n1)N1CC=CC1=O | 46 | 82 | 1.8 | – | –
45 | CC1=CC(=O)N(N(C)c2ccc(C(F)(F)F)c(N3CC(F)(F)C3)n2)C1=O | 7.1 | 47 | 6.6 | – | –
46 | CC1=CC(=O)N(Nc2nc(-c3cccs3)nn3cccc23)C1=O | 44.7 | 170 | 3.8 | – | –
47 | CC1=CC(=O)N(Nc2nc(-c3ccccc3)nn3cccc23)C1=O | 66.2 | 410 | 6.2 | 75 | 19
48 | CC1=CC(=O)N(N(C)c2ccc(C(F)(F)F)c(N3CCCC(F)(F)C3)n2)C1=O | 11 | 70.9 | 6.4 | – | –
